Drawing on ChEMBL document CHEMBL2062430, “Set-up of a new series of HDAC inhibitors: the 5,11-dihydrodibenzo[b,e]azepin-6-ones as privileged structures” (Bioorg Med Chem Lett, 2012), this text covers inhibition and IC50 for eight compounds.

The target in test [1] is T1, Histone deacetylase (Homo sapiens) (UniProt Q13547+O15379+Q9UBN7+Q92769+Q9UQL6+Q8WUI4+Q9BY41+Q96DB2+P56524+Q9UKV0+Q969S8). As to conditions: HeLa, at 1 µM.
Description: Inhibition of HDAC in human HeLa cell extracts using Fluor de Lys as substrate at 1 uM by fluorescence assay
The target in test [2] is T1, Histone deacetylase (Homo sapiens). The settings on record: HeLa, at 0.01 µM.
Description: Inhibition of HDAC in human HeLa cell extracts using Fluor de Lys as substrate at 0.01 uM by fluorescence assay
Test [3] shares this target. The settings on record: HeLa, at 0.1 µM.
Description: Inhibition of HDAC in human HeLa cell extracts using Fluor de Lys as substrate at 0.1 uM by fluorescence assay
In a further test the test system is HCT-116. Put plainly: Antiproliferative activity against human HCT116 cells after 5 days by Alamar Blue assay. It counts as functional, cell-based. As to conditions: HCT-116, 120 h. For orientation: Resazurin is reduced to fluorescent resorufin, in cell work by metabolically active cells.
The next test addresses Histone deacetylase. Put plainly: Inhibition of HDAC in human HeLa cell extracts using Fluor de Lys as substrate by fluorescence assay. It counts as protein assay.

Regarding `COC1(OC)c2ccccc2C(=O)N(CCCCCC(=O)NO)c2ccccc21`, the figures for the inhibition in test [1], in test [2] and in test [3] were 42%, below 20% and below 20%, respectively.
Regarding `O=C(CCCCCN1C(=O)c2ccccc2C(F)(F)c2ccccc21)NO`, the inhibition is 78% in test [1], below 20% in test [2] and 50% in test [3]. Further, the values for the half-inhibitory concentration (IC50) in the test on HCT-116 and against Histone deacetylase were 600 nM and 111 nM, respectively.
Turning to `O=C(CCCCCN1C(=O)c2ccccc2Cc2ccccc21)NO`, the inhibition was found to be 84% in test [1], 21% in test [2] and 67% in test [3]. The values for the IC50 in the test with HCT-116 and against Histone deacetylase were 710 nM and 42 nM, respectively.
As to `O=C(CCCN1C(=O)c2ccccc2Cc2ccccc21)NO`, the inhibition in test [1], in test [2] and in test [3] was below 20% throughout.
For the compound `O=C(CCCCN1C(=O)c2ccccc2Cc2ccccc21)NO`, the inhibition in test [1] was 29%; in test [2], below 20%; in test [3], below 20%.
Regarding `O=C(CCCCCN1C(=O)c2ccccc2C(O)c2ccccc21)NO` (centres undefined), the inhibition turned out to be 81% in test [1], 21% in test [2] and 58% in test [3]. The IC50 came out at 2000 nM with HCT-116 and 60 nM against Histone deacetylase.
Regarding `O=C(CCCCCn1c(=O)c2ccccc2c(=O)c2ccccc21)NO`, the results for the inhibition in test [1], in test [2] and in test [3] were 77%, 11% and 47%, respectively. Besides, the IC50 in the test with HCT-116 was above 1000 nM; against Histone deacetylase it was 153 nM.
For the compound `O=C(CCCCCN1C(=O)c2ccccc2C(F)c2ccccc21)NO` (centres undefined), the inhibition was 84% in test [1], below 20% in test [2] and 62% in test [3]. In addition, the IC50 came out at 1600 nM in the test on HCT-116 and 53 nM at Histone deacetylase.

Usually inhibition stands for how much of the control response was suppressed. Read a high inhibition as a strong effect. What is called IC50 is the concentration needed to halve the response being measured.
